# Measurements: paper PMC3657136, “An antibacterial from Hypericum acmosepalum inhibits ATP-dependent MurE ligase from Mycobacterium tuberculosis” (International Journal of Antimicrobial Agents, 2012)
# Target: T1, ATP-dependent MurE ligase (Mycobacterium tuberculosis, UniProt P9WJL3)
# T1 sequence (P9WJL3 1-535): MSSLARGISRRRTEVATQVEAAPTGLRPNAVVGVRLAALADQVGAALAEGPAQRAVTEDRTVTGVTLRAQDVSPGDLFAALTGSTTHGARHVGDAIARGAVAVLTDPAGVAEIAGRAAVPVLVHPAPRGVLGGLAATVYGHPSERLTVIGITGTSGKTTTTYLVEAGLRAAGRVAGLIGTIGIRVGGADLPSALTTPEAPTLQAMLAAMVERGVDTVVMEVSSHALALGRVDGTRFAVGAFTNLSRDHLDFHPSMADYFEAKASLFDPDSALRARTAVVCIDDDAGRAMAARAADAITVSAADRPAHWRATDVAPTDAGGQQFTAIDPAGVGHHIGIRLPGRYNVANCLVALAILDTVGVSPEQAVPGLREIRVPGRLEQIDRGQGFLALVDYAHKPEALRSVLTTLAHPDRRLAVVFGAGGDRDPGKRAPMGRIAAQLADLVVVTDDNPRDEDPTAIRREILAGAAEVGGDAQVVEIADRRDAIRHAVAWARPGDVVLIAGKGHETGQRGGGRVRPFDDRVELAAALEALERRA
# Assay: biochemical
smiles,measurement,value
"C=CC(C)(C)c1c(OC)oc(-c2ccccc2)cc1=O [compound 2, hyperenone A]",IC50,320 µM
